Residues, ends and D or L forms follow the SMILES beside them. No end group written: not given here.
Tests used:
[1] = test system: h-Amylin depression of hippocampal LTP; assay: Hippocampal slice electrophysiology, long-term potentiation (LTP); design: species or system mouse; conditions: for reversal of h-Amylin reduction in LTP: 250 nM peptide perfused 5 min prior to 50 nM h-Amylin; for effect of peptide alone on LTP: 250 nM, mouse hippocampal slice
Method: Brains were quickly removed from mice following decapitation, placed in a cold artificial cerebral spinal fluid (aCSF) on a vibratome chamber, and transverse sections cut through the hippocampus. The aCSF contained (in millimolar 124 NaCl, 3 KCl, 2.4 CaCl2, 2 MgCl2, 1.25 NaH2PO4, 26 NaHCO3, and 10 D-glucose and was equilibrated with 95% 02 and 5% CO2. Hippocampal slices (400-μm thick) were maintained in aCSF-filled holding chamber at room temperature for at least 1 h and individually transferred to the submerged glass bottom recording chamber, which was constantly perfused with aCSF (2 ml/min) at 30° C. Field excitatory postsynaptic potential (fEPSP) was recorded with a metallic (Pt/Ir) electrode (FHC, Bowdoin, Me.) from the stratum radiatum layer of Cornu ammonis 1 region of the hippocampus (CA1) area, and the Schaffer collateral afferents were stimulated with 100-μs test pulses via a bipolar cluster electrode (FHC). For long-term potentiation (LTP) experiments, the stimulus strength was set to elicit 40-50% of the maximum fEPSP amplitude and test pulses were delivered to Schaffer collaterals once every 30 s. LTP was induced by 3-theta-burst stimulation (3-TBS) protocol (each burst consisted of four pulses at 100 Hz with a 200-ms interburst interval). Before 3-TBS or drug application, the responses were monitored for at least 10 min to ensure a stable baseline of fEPSP.
Soluble oligomeric Aβ1-42, Fragments R5, R10, R11 and h-Amylin were used. Aβ1-42 was purchased from rPeptide, and h-Amylin were purchased from American Peptide. All drugs and chemicals were applied directly to the slice via bath perfusion, which allowed for a complete exchange of the perfusate in less than a minute and a half.

[2] = target: T1, AMY3 receptor (CTR+RAMP3), HEK293-AMY3 cells (Homo sapiens, UniProt O60896+P30988); assay: Peptide array-cell binding assay, AMY3 cells; conditions: membrane-bound peptides, GFP cells
T1 construct: expressed in transfected cells; AMY3-293 / AMY3-HEK)
T1 sequence (P30988 25-474): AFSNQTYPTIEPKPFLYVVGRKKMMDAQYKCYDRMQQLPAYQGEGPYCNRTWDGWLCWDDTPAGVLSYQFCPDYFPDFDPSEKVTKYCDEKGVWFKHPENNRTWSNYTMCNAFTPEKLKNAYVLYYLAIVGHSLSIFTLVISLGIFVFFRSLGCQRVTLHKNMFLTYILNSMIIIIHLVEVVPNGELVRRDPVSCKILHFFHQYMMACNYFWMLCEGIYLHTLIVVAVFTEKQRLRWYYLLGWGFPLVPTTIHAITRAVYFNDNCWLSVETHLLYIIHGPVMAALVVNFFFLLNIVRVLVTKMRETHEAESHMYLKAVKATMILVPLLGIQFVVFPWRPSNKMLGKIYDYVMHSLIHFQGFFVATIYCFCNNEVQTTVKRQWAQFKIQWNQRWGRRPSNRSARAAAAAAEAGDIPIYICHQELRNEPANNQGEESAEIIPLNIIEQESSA
T1 sequence (O60896 24-148 partner): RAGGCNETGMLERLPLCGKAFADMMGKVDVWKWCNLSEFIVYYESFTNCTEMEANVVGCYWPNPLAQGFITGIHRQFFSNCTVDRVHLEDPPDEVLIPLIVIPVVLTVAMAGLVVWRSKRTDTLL
Source text: A peptide array library derived from AC253 peptide sequence comprising 14 short peptide sequences namely, R1-R14 (R-R13 are 12 amino acids, peptide R14 is 14 aa), was synthesized in duplicate on a cellulose membrane using SPOT synthesis. Briefly, peptide fragments were designed by selecting the first 12 amino acids from N-terminus, skipping one amino acid and moving towards C-terminus to yield 13 sequences R1-R13, and peptide R14 is the first 14 amino acid of the N-terminus region of AC253. The peptide array was synthesized on a PEG-500-derivatized cellulose membrane with a free amino terminal group using a semiautomatic robot AutoSpot ASP222 (Intavis AG, Germany). Synthesis of peptides on PEG500 derivatised cellulose membrane was started by attaching first β-alanine residue (linker) to the cellulose membrane and subsequently peptides synthesized from the C-terminus. […]
To screen the peptide library for amylin receptor binding affinity, transfected GFP-positive Human Embryonic Kidney 293 cells that express AMY3 receptor (CTR+RAMP3) was used. […] The peptide array membrane was incubated with 20 ml GFP-cells (75,000/ml) in serum free media for 3 hr, and after washing, the net fluorescence intensity of each peptide spot due to bound cells was quantified using a Kodak imager. […] Duplicate peptide spots, two scans, and two different experiments were used to calculate net fluorescence intensity. […]

[3] = test system: human neuroblastoma, SK-N-SH cells; assay: Aβ1-42 cytotoxicity (MTT) in SK-N-SH cells; type: cell-based; conditions: Aβ1-42 20 μM
Method: f) To investigate the antagonistic activity of peptide fragments against Aβ cytotoxicity in vitro, (human fetal neurons) HFNs, human neuroblastoma, SK-N-SH cells and N2a mouse neuroblastoma cells were used. Cells were seeded to 5000 cells/well in a 96-well plate in MEM-10% FBS and DMEM/OptiMEM-5% FBS for overnight. Cells in culture media were preincubated for 8 h with or without AC253 or fragments R5, R14, R11, and followed by treatment with Aβ1-42 for 24 h. At the end of treatment, 20 μl of 5 mg/ml methylthiazolyldiphenyl-tetrazolium bromide (MTT) was added to each well, and incubated at 37° C. for 3 h. Medium was removed, 100 μl of MTT solvent (isopropanol with 4 mM HCl) added to each well, and the plates were incubated for 30 min at room temperature on a rotating shaker. Plates were analyzed on a microplate reader at a 562-nm wavelength.

| Molecule | reversal of h-Amylin reduction in LTP [1] | effect of peptide alone on LTP [1] | binding to HEK293-AMY3 cells on peptide array (fluorescence) [2] | block of Aβ1-42 triggered cell death, SK-N-SH (MTT) [3] |
| --- | --- | --- | --- | --- |
| LGRLSQELHRLQTY (LGRLSQELHRLQTY-NH2) [R14] | significantly reversed | did not impair LTP | most significant binding | block the effect of Aβ1-42 |
| CC(C)C[C@H](NC(=O)[C@H](CCC(=O)O)NC(=O)[C@H](CCC(N)=O)NC(=O)[C@@H](N)CO)C(=O)N[C@@H](Cc1c[nH]cn1)C(=O)N[C@@H](CCCNC(=N)N)C(=O)N[C@@H](CC(C)C)C(=O)N[C@@H](CCC(N)=O)C(=O)N[C@H](C(=O)N[C@@H](Cc1ccc(O)cc1)C(=O)N1CCC[C@H]1C(=O)N[C@@H](CCCNC(=N)N)C(N)=O)[C@@H](C)O [R5] (H-SQELHRLQTYPR-NH2; N-terminus assumed) | significantly reversed | did not impair LTP | most significant binding | block the effect of Aβ1-42 |
